Test results published in patent US9796711B2, “Substituted pyrazolo[3,4-b]pyridin-6-carboxylic acids and method of use” (AbbVie S.àr.l., priority 2015, dated 2017).

Columns and labels:
ΔF508-CFTR [1] = target: T1, ΔF508-CFTR (Homo sapiens, UniProt P13569, DEL508-508); experiment: CFTR cell surface levels using HRP-tagged ΔF508-CFTR expressing CFBE cells, in the presence of a co-corrector; format: cell-based; settings: HRP-tagged ΔF508-CFTR expressing CFBE cells, in the presence of 3 μM co-corrector; for EC50: read-out: EC50
T1 construct: host or cells: CFBE41o-, doxycycline-inducible
Outline: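 Cells were seeded with 0.5 μg/mL doxycycline and held 68 h at 37 °C. Test compounds plus 3 μM co-corrector (final 0.1% DMSO) were then added for 20 h at 33 °C. Washed cells received HRP substrate, and luminescence was normalized between DMSO and 3 μM co-corrector controls.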

ΔF508-CFTR [2] = target: T1, ΔF508-CFTR; experiment: CFTR cell surface levels using HRP-tagged ΔF508-CFTR expressing CFBE cells, intrinsic corrector capacity; format: cell-based; settings: HRP-tagged ΔF508-CFTR CFBE41o- cells, compounds alone (intrinsic corrector capacity), 20 hours at 33° C.; for % Activation: positive control 3 μM corrector; for EC50: read-out: EC50
Outline: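 Here the cells express ΔF508-CFTR with horseradish peroxidase inserted in extracellular loop 4, so only rescued channel at the surface gives luminescent signal. Compounds act on their own, 20 h at the reduced temperature of 33 °C; values are percent activity relative to DMSO and a 3 μM corrector.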

T1 sequence (P13569 with tags, fused parts or gaps DEL508-508): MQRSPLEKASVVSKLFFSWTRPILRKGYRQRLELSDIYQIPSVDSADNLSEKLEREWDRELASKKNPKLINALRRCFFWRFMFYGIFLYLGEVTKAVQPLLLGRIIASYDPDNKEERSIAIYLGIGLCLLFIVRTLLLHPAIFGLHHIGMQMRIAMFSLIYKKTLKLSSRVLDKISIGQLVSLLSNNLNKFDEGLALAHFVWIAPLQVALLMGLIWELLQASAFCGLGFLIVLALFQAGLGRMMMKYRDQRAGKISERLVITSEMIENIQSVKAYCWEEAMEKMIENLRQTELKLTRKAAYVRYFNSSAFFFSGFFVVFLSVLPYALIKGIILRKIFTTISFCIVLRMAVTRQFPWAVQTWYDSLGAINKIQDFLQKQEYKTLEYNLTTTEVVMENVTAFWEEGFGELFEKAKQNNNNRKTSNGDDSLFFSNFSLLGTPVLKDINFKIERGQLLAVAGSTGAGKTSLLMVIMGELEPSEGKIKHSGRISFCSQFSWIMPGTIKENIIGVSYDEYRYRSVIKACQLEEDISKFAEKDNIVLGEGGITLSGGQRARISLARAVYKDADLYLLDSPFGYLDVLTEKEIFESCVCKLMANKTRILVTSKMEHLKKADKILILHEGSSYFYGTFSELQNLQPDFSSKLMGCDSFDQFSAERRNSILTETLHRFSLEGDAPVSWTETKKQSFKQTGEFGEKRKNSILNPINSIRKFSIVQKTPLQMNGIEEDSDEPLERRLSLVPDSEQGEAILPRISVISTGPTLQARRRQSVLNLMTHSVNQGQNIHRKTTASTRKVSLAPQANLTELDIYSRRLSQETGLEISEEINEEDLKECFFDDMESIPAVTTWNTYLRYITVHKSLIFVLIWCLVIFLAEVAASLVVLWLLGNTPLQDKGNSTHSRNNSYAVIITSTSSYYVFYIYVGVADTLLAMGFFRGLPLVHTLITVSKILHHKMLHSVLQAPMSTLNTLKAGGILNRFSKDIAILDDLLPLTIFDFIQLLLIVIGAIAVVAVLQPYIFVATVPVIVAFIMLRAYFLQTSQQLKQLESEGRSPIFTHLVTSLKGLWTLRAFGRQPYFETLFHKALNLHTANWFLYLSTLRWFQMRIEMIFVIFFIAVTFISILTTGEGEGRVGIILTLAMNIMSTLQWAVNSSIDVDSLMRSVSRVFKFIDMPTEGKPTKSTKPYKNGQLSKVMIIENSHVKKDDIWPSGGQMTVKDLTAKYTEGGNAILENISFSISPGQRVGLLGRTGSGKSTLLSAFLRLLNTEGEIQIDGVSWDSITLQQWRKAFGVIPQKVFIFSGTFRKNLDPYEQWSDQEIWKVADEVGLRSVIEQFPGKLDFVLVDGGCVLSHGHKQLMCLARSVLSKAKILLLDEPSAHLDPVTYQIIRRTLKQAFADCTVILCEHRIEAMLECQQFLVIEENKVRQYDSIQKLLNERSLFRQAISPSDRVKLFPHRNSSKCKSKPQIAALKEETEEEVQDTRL

| SMILES | % Activation (ΔF508-CFTR [1]) | EC50 (ΔF508-CFTR [1]) | % Activation (ΔF508-CFTR [2]) | EC50 (ΔF508-CFTR [2]) |
| --- | --- | --- | --- | --- |
| Cc1nn(-c2ccccc2)c2nc(C(=O)O)cc(N3CCCC4(CC4)C3)c12 [compound 310, 4-(5-azaspiro[2.5]octan-5-yl)-3-methyl-1-phenyl-1H-pyrazolo[3,4-b]pyridine-6-carboxylic acid] | 199.65% | 1610 nM | 88.73% | 1890 nM |
| Cc1nn(-c2ccccc2)c2nc(C(=O)O)cc(N3CCC4(CCCO4)C3)c12 (stereo not shown) [compound 311, 3-methyl-4-(1-oxa-7-azaspiro[4.4]nonan-7-yl)-1-phenyl-1H-pyrazolo[3,4-b]pyridine-6-carboxylic acid] | 195.5% | 2140 nM | 53.7% | 2510 nM |
| Cc1nn(-c2ccccc2)c2nc(C(=O)O)cc(N3CC4(CCCCO4)C3)c12 [compound 312, 3-methyl-4-(5-oxa-2-azaspiro[3.5]nonan-2-yl)-1-phenyl-1H-pyrazolo[3,4-b]pyridine-6-carboxylic acid] | 185% | 2320 nM | 61.325% | 2510 nM |
| Cc1nn(-c2ccccc2)c2nc(C(=O)O)cc(N3CCC4(CCNC4=O)C3)c12 (stereo not shown) [compound 313, 3-methyl-4-(6-oxo-2,7-diazaspiro[4.4]nonan-2-yl)-1-phenyl-1H-pyrazolo[3,4-b]pyridine-6-carboxylic acid] | 132.2% | 7500 nM | 11.239% | 7500 nM |
| Cc1nn(-c2ccccc2)c2nc(C(=O)O)cc(N3CCC([C@H](F)CN(C)C)CC3)c12 [compound 314, 4-{4-[(1S)-2-(dimethylamino)-1-fluoroethyl]piperidin-1-yl}-3-methyl-1-phenyl-1H-pyrazolo[3,4-b]pyridine-6-carboxylic acid] | 250.1% | 2510 nM | 92.46% | 2510 nM |
| Cc1nn(-c2ccccc2)c2nc(C(=O)O)cc(N3CCCOCC3)c12 [compound 315, 3-methyl-4-(1,4-oxazepan-4-yl)-1-phenyl-1H-pyrazolo[3,4-b]pyridine-6-carboxylic acid] | 150.3% | 4170 nM | 24.61% | 3430 nM |
| CC(C)c1nn(-c2cccc(F)c2)c2nc(C(=O)O)cc(-c3cnc(N(C)C4CCOCC4)nc3)c12 [compound 316, 1-(3-fluorophenyl)-4-{2-[methyl(oxan-4-yl)amino]pyrimidin-5-yl}-3-(propan-2-yl)-1H-pyrazolo[3,4-b]pyridine-6-carboxylic acid] | 435.6% | 308 nM | 218.87% | 565 nM |
| CC(C)c1nn(-c2cc(F)cc(F)c2)c2nc(C(=O)O)cc(-c3cnc(N(C)C4CCOCC4)nc3)c12 [compound 317, 1-(3,5-difluorophenyl)-4-{2-[methyl(oxan-4-yl)amino]pyrimidin-5-yl}-3-(propan-2-yl)-1H-pyrazolo[3,4-b]pyridine-6-carboxylic acid] | 433.4% | 972 nM | 216.25% | 695 nM |
| COCCOC1CCN(c2cc(C(=O)O)nc3c2c(C)nn3-c2ccccc2)CC1 [compound 318, 4-[4-(2-methoxyethoxy)piperidin-1-yl]-3-methyl-1-phenyl-1H-pyrazolo[3,4-b]pyridine-6-carboxylic acid] | 323.72% | 1860 nM | 134.15% | 2630 nM |
| Cc1nn(-c2ccccc2)c2nc(C(=O)O)cc(N3CCC(C(=O)N(C)C)CC3)c12 [compound 319, 4-[4-(dimethylcarbamoyl)piperidin-1-yl]-3-methyl-1-phenyl-1H-pyrazolo[3,4-b]pyridine-6-carboxylic acid] | 270.75% | 4170 nM | 80.905% | 2510 nM |
